Reference: US20200061026A1, “METHODS AND COMPOSITIONS FOR PREVENTING VECTOR-BORNE DISEASE TRANSMISSION” (The Scripps Research Institute, priority 2016, published 2020)

How the values were obtained:
[1] = test system: Anopheles gambiae Kisumu; assay: WHO paper contact assay, Anopheles gambiae Kisumu; format: in vivo; conditions: papers 0.75% permethrin, 0.05% deltamethrin, 4% DDT, 0.1% bendiocarb, 1.0% fenitrothion, 4% dieldrin
Method: (§1) Mosquito colonies utilized in the examples were generally maintained as described: The colony of Anopheles stephensi (Sind-Kasur Nijmegen strain) was maintained at the Radboud University Medical Center, Nijmegen, The Netherlands, by 30° C. and 70-80% humidity and on a 12/12 hour day/night cycle. The Anopheles gambiae strains Kisumu and Tiassalé and the Aedes aegypti strains New Orleans and Cayman were reared at the Liverpool Insect Testing Establishment, Liverpool, UK. Kisumu is an insecticide susceptible lab strain. New Orleans was originally colonized by the Centers for Disease Control and Prevention. The Tiassalé strain was colonized from Southern Cote D'Ivoire where resistance to all classes of insecticide is found and the Cayman strain was colonized from Grand Cayman, where Aedes aegypti are highly resistant to DDT and pyrethroid insecticides. Both resistant strains are routinely selected with insecticides to ensure the maintenance of resistance, 0.75% permethrin for Cayman and 0.05% deltamethrin for Tiassalé, and profiled for resistance to a range of insecticides, including 4% dieldrin, to which Tiassalé is resistant but Cayman is susceptible.
(§2) Without being bound by theory, isoxazolines occupy a binding site that is distinct from the targets of known modulators of ionotropic GABA receptors. In line with this notion, fluralaner and afoxolaner were fully active against the Anopheles gambiae Tiassalé strain that carries the resistance-to-dieldrin (rdl) mutation in the GABA receptor. In addition, they were equipotent against pyrethroid- and carbamate-resistant strains carrying mutations in the kdr sodium channel and acetylcholine esterase (Ace-1) genes respectively. […] The results are shown as percentage of survival (on over 100 mosquitoes for each case), the bold and underlined numbers indicate values that fall within the criteria for resistance.

[2] = test system: Aedes aegypti Cayman; assay: WHO paper contact assay, Aedes aegypti Cayman; format: in vivo; conditions: papers 0.75% permethrin, 0.05% deltamethrin, 4% DDT, 0.1% bendiocarb, 1.0% fenitrothion, 4% dieldrin
Method: as §1, §2

[3] = test system: Aedes aegypti New Orleans; assay: WHO paper contact assay, Aedes aegypti New Orleans; format: in vivo; conditions: papers 0.75% permethrin, 0.05% deltamethrin, 4% DDT, 0.1% bendiocarb, 1.0% fenitrothion, 4% dieldrin
Method: as §1, §2

[4] = test system: Anopheles gambiae Tiassale 13; assay: WHO paper contact assay, Anopheles gambiae Tiassale; format: in vivo; conditions: papers 0.75% permethrin, 0.05% deltamethrin, 4% DDT, 0.1% bendiocarb, 1.0% fenitrothion, 4% dieldrin
Method: as §1, §2

[5] = test system: malaria transmission; conditions: cited from earlier work
[6] = test system: Anopheles gambiae (Tiassalé); assay: Membrane feeding, Anopheles gambiae Tiassalé strain (rdl mutation); format: in vivo; conditions: Tiassale strain; membrane feeding
Method: as §1
Isoxazoline compounds fluralaner or afoxolaner were reconstituted in 50% human serum and 50% red blood cells and administered to adult Anopheles stephensi mosquitos via standard membrane feeding. Lethality was assessed 1, 2 or 8 days after exposure. FIG. 2A represents a plot of viable Anopheles stephensi versus fluralaner concentration at each day of assessment. FIG. 2B represents a plot of viable Anopheles stephensi versus afoxolaner concentration at each day of assessment. […] The IC50 values of each compound for Anopheles death were determined by logistic regression using a least squares method to find the best fit and are shown in Table 1. IC50 values were calculated by applying a four-parameter logistic regression model using a least-squares method to find the best fit using the Graphpad Prism 5.0 software package.
The membrane feeding experiment described was repeated using the insecticide dieldrin on two strains of Anopheles gambiae: Kisumu and Tiassale. The Tiassale strain has a mutation in the resistance to dieldrin (rdl) locus, which codes for γ-aminobutyric acid (GABA) receptor. The Tiassale strain was resistant to pyrethroids, carbamate, DDT and dieldrin (knockdown resistance (kdr), Ace and rdl mutations). The Kisumu strain was susceptible to killing by all tested insecticides. FIG. 3A represents a plot of percentage survival of Kisumu and Tiassale strains of Anopheles gambiae versus dieldrin concentration. FIG. 3B represents a plot of survival of the Kisumu and Tiassale strains at 10 μM dieldrin. […] Both figures indicate that the dose-response in systemic feed experiment performed here in allows for identification of a resistance profile.
The feed experiment in Anopheles gambiae was repeated using the isoxazoline compounds fluralaner and afoxolaner to determine if the rdl mutation confers resistance to the isoxazoline insecticides. Isoxazoline insecticides target Rdl, but in a location thought to be different from dieldrin. The mosquitos were fed fluralaner or afoxolaner at various concentrations and lethality was assessed after 24 hours. FIG. 4A represents a plot of percentage survival of Kisumu and Tiassale strains of Anopheles gambiae versus fluralaner concentration. FIG. 4B represents a plot of percentage survival of Kisumu and Tiassale strains of Anopheles gambiae versus afoxolaner concentration.

[7] = in vitro; conditions: hepatocytes
Method: (§3) In a further assay, isoxazolines (fluralaner and afoxolaner) and control compounds (7-Ethoxycoumarin and 7-Hydroxycoumarin [Sigma]) were dissolved in DMSO at 10 and 30 mM respectively, then diluted first 20-fold with 45% methanol in water and a further 10-fold in pre-warmed Williams' Medium E. Cryopreserved human, dog and rat hepatocytes (In Vitro Technologies) were thawed, isolated by percoll gradient and suspended in Williams' Medium E. Cells were then dispensed into the wells of 96-well plates containing 10 μL of diluted compounds, to reach a final concentration of 0.5×10^6 cells/mL and 1 μM of isoxazolines or 3 μM of control. After an incubation at 37° C. of 0, 15, 30, 60 or 90 minutes, the reaction was stopped with acetonitrile. The samples were then shaken for 10 minutes at 500 rpm and centrifuged at 3220 g for 20 minutes. Supernatants were transferred and stored at 4° C. until LC-MS-MS analysis.

[8] = in vitro; conditions: human, hepatocytes
Method: as §3

[9] = in vitro; conditions: hepatocytes; remark: listed apart in the source
Method: as §3

Compound | percentage of survival [1] [%] | percentage of survival [2] [%] | percentage of survival [3] [%] | percentage of survival [4] [%] | also measured
CC1(C)C(C=C(Cl)Cl)C1C(=O)OCc1cccc(Oc2ccccc2)c1 (stereo not shown) [Permethrin] | 100 | 7 | 100 | 3 | 
Clc1ccc(C(c2ccc(Cl)cc2)C(Cl)(Cl)Cl)cc1 [DDT] | 100 | 0 | 100 | 3 | 
CC1(C)[C@H](C(=O)O[C@H](C#N)c2cccc(Oc3ccccc3)c2)[C@@H]1C=C(Br)Br [Deltamethrin] | 100 | 36 | 100 | 10 | 
ivermectin |  |  |  |  | estimated reduction in new malaria cases in children under 5 ([5]; MDA studies): 16%; reduction in infectious Anopheles gambiae ([5]; MDA studies): ~80%; estimated reduction in transmission potential ([5]; co-treatment with artemether-lumefantrine, effect short-lived): 35%
ClC1=C(Cl)[C@]2(Cl)[C@@H]3[C@@H]4C[C@@H]([C@H]5O[C@@H]45)[C@@H]3[C@@]1(Cl)C2(Cl)Cl [Dieldrin] | 96 | 95 | 100 | 21 | resistance of strain to killing (in words) [6]: confers resistance to killing by dieldrin
CCOc1ccc2ccc(=O)oc2c1 [7-Ethoxycoumarin] |  |  |  |  | half-life ([7]; dog): 14 min; hepatocyte CLint ([7]; dog): 99.3 µL/min/1e6 cells; half-life [8]: 20.1 min; hepatocyte CLint [8]: 69.1 µL/min/1e6 cells; half-life ([9]; rat): 61.8 min; hepatocyte CLint ([9]; rat): 22.4 µL/min/1e6 cells
O=c1ccc2ccc(O)cc2o1 [7-Hydroxycoumarin] |  |  |  |  | half-life [7]: 20.4 min; hepatocyte CLint [7]: 68.1 µL/min/1e6 cells; half-life [8]: 14.7 min; hepatocyte CLint [8]: 94.1 µL/min/1e6 cells; half-life [9]: 4.8 min; hepatocyte CLint [9]: 290 µL/min/1e6 cells
CNC(=O)Oc1cccc2c1OC(C)(C)O2 [Bendiocarb] | 100 | 20 | 27 | 11 | 
COP(=S)(OC)Oc1ccc([N+](=O)[O-])c(C)c1 [Fenitrothion] | 100 | 100 | 100 | 96 | 
